# Test results taken from US9969742B2, “Imidazotriazinone compounds” (Ironwood Pharmaceuticals, Inc., priority 2012, dated 2018).
# Molecular target: T1, PDE9A2 (Homo sapiens, UniProt O76083)
# T1 construct: purchased Reaction Biology Corporation, Malvern, Pa
# Experiment: Phosphodiesterase enzyme screening assay, PDE9A2
# Format: biochemical
# Conditions: 4.0 μM cGMP substrate, 1 hour at R.T.; read-out: Band (PDE9A2 IC50)
# Text: Compounds of the invention were screened against PDE1A, PDE1B, PDE2A, PDE3A, PDE3B, PDE4A1A, PDE4B1, PDE4D3, PDE5A1, PDE6C, PDE7A, PDE8A1, PDE9A2, PDE10A2 AND PDE11A isoforms of the phosphodiesterase enzyme to determine activity and overall selectivity through comparative analysis. […] Where 8-methoxy-IBMX and Zaprinast were used as reference inhibitors.
# The phosphodiesterase enzyme isoforms were obtained from a commercial retailer (Reaction Biology Corporation, Malvern, Pa.) for use in the instant screening assay.
# The analysis was completed using the Caliper LabChip 3000 and a 12-sipper LabChip. LabChip assays are separations-based, meaning that the product and substrate are electrophoretically separated, thereby minimizing interferences and yielding the highest data quality available on any screening platform. […] High Z′ values, few false positives, few false negatives and analytical quality reproducibility are the reasons cited for the increasing reliance on the LabChip assays.
# The off-chip incubation mobility-shift phosphodiesterase assay uses a microfluidic chip to measure the conversion of a fluorescent cyclic AMP substrate to a 5′-AMP product, or a cyclic GMP substrate to a 5′-GMP product. The reaction mixture, from a microtiter plate well, is introduced through a capillary sipper onto the chip, where the fluorescent substrate and product are separated by electrophoresis and detected via laser-induced fluorescence. […] The precision of microfluidics allows researchers to detect subtle interactions between drug candidates and therapeutic targets.
# Reactions were carried out in 100 mM HEPES (pH 7.5), 5 mM MgCl2, 1 mM DTT, 0.003% Brij, 4.0 μM cGMP substrate. The reaction was started by addition of cGMP or cAMP and incubated for 1 hour at R.T. The reaction was terminated by the addition of stop buffer containing 100 mM HEPES (pH 7.5), 15 mM EDTA, 0.015% Brij-35, 5% DMSO. Cyclic AMP/GMP substrate and 5′-AMP/5′-GMP product were separated by charge using electrophoretic mobility shift. Product formed was compared to control wells to determine inhibition or enhancement of enzyme activity.
# Data points were averages of quadruplicate wells and error bars represented the SEM for each point.
# T1 sequence (O76083 1-533 isoform O76083-2): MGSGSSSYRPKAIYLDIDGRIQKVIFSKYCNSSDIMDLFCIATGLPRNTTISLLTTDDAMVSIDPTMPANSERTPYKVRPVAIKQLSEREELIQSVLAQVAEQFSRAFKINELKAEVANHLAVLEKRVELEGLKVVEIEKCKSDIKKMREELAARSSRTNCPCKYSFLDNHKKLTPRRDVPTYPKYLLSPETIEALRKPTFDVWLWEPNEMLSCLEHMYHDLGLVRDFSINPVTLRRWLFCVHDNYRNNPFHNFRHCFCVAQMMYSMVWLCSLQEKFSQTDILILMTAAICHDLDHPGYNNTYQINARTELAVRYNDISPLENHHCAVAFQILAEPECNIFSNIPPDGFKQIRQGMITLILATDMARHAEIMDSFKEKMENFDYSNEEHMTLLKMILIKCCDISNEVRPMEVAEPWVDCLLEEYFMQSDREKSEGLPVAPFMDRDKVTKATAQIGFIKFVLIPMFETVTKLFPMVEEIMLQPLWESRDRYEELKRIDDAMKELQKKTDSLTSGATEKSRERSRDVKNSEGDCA
row,IC50 [nM],Compound
1,< 1000,"CC1CN(Cc2ccccc2)CC1c1nn2c(CC(F)(F)F)ncc2c(=O)[nH]1 (single isomer, unassigned; (+)) [(+)-2-((3,4-trans)-1-benzyl-4-methylpyrrolidin-3-yl)-7-(2,2,2-trifluoroethyl) imidazo [5,1-f] [1,2,4] triazin-4 (3H)-one]"

# Same assay, conditions: Table 1; 10 concentrations; 4.0 μM cGMP substrate; 1 hour at R.T.; read-out: Band (PDE9A2 IC50)
row,Compound,IC50 [nM]
1,"CC1CN(C(=O)c2ccccc2)CC1c1nn2c(C3CCOCC3)ncc2c(=O)[nH]1 (single isomer, unassigned; (+)) [(+)-2-((3,4-trans)-1-benzoyl-4-methylpyrrolidin-3-yl)-7-(tetrahydro-2H-pyran-4-yl)imidazo[5,1-f][1,2,4]triazin-4(3H)-one]",1000 to 10000
2,"Cc1ccc(F)cc1-c1ncc2c(=O)[nH]c(C3CN(Cc4ccccc4)CC3C)nn12 (single isomer, unassigned; (+)) [(+)-2-((3,4-trans)-1-benzyl-4-methylpyrrolidin-3-yl)-7-(5-fluoro-2-methylphenyl)imidazo[1,5-f][1,2,4]triazin-4(3H)-one]",< 1000
3,"CC1CN(Cc2ccccc2)CC1c1nn2c(C3CCOCC3)ncc2c(=O)[nH]1 (single isomer, unassigned; (+)) [(+)-2-((3,4-trans)-1-benzyl-4-methylpyrrolidin-3-yl)-7-(tetrahydro-2H-pyran-4-yl)imidazo[1,5-f][1,2,4]triazin-4(3H)-one]",< 1000
4,"CC1CN(C(=O)c2ccccc2C#N)CC1c1nn2c(C3CCOCC3)ncc2c(=O)[nH]1 (single isomer, unassigned; (+)) [(+)-2-((3,4-trans)-3-methyl-4-(4-oxo-7-(tetrahydro-2H-pyran-4-yl)-3,4-dihydroimidazo[5,1-f][1,2,4]triazin-2-yl)pyrrolidine-1-carbonyl)benzonitrile]",1000 to 10000
5,"CC1CN(S(=O)(=O)c2ccccc2)CC1c1nn2c(C3CCOCC3)ncc2c(=O)[nH]1 (single isomer, unassigned; (+)) [(+)-2-((3,4-trans)-4-methyl-1-(phenylsulfonyl)pyrrolidin-3-yl)-7-(tetrahydro-2H-pyran-4-yl)imidazo[5,1-f][1,2,4]triazin-4(3H)-one]",< 1000
6,"CC1CN(Cc2ccc(C#N)cc2)CC1c1nn2c(C3CCOCC3)ncc2c(=O)[nH]1 (single isomer, unassigned; (+)) [(+)-4-(((3,4-trans)-3-methyl-4-(4-oxo-7-(tetrahydro-2H-pyran-4-yl)-3,4-dihydroimidazo[5,1-f][1,2,4]triazin-2-yl)pyrrolidin-1-yl)methyl)benzonitrile]",< 1000

# Continued, values first:
row,IC50 [nM],Compound
1,< 1000,"CC1CN(S(=O)(=O)c2cccnc2)CC1c1nn2c(C3CCOCC3)ncc2c(=O)[nH]1 (single isomer, unassigned; (+)) [(+)-2-((3,4-trans)-4-methyl-1-(pyridin-3-ylsulfonyl)pyrrolidin-3-yl)-7-(tetrahydro-2H-pyran-4-yl)imidazo[5,1-f][1,2,4]triazin-4(3H)-one]"
2,< 1000,"CC1CN(Cc2ncccn2)CC1c1nn2c(C3CCOC3)ncc2c(=O)[nH]1 (single isomer, unassigned; (+)) [(+)-2-((3,4-trans)-4-methyl-1-(pyrimidin-2-ylmethyl)pyrrolidin-3-yl)-7-(tetrahydrofuran-3-yl)imidazo[5,1-f][1,2,4]triazin-4(3H)-one]"
3,1000 to 10000,"CC1CN(C(=O)c2ncccn2)CC1c1nn2c(C3CCOCC3)ncc2c(=O)[nH]1 (single isomer, unassigned; (+)) [(+)-2-((3,4-trans)-4-methyl-1-(pyrimidine-2-carbonyl)pyrrolidin-3-yl)-7-(tetrahydro-2H-pyran-4-yl)imidazo[5,1-f][1,2,4]triazin-4(3H)-one]"
4,< 1000,"CC1CN(Cc2ncc3ccccc3n2)CC1c1nn2c(C3CCOCC3)ncc2c(=O)[nH]1 (single isomer, unassigned; (+)) [(+)-2-((3,4-trans)-4-methyl-1-(quinazolin-2-ylmethyl)pyrrolidin-3-yl)-7-(tetrahydro-2H-pyran-4-yl)imidazo[5,1-f][1,2,4]triazin-4(3H)-one]"
5,< 1000,"CC1CN(Cc2ccc3ccccc3n2)CC1c1nn2c(C3CCOCC3)ncc2c(=O)[nH]1 (single isomer, unassigned; (+)) [(+)-2-((3,4-trans)-4-methyl-1-(quinolin-2-ylmethyl)pyrrolidin-3-yl)-7-(tetrahydro-2H-pyran-4-yl)imidazo[5,1-f][1,2,4]triazin-4(3H)-one]"
6,1000 to 10000,"CC1CN(S(=O)(=O)c2ccccc2C#N)CC1c1nn2c(C3CCOCC3)ncc2c(=O)[nH]1 (single isomer, unassigned; (+)) [(+)-2-(((3,4-trans)-3-methyl-4-(4-oxo-7-(tetrahydro-2H-pyran-4-yl)-3,4-dihydroimidazo[5,1-f][1,2,4]triazin-2-yl)pyrrolidin-1-yl)sulfonyl)benzonitrile]"
7,> 10000,"CC1CN(S(=O)(=O)c2ccc(C#N)cc2)CC1c1nn2c(C3CCOCC3)ncc2c(=O)[nH]1 (single isomer, unassigned; (+)) [(+)-4-(((3,4-trans)-3-methyl-4-(4-oxo-7-(tetrahydro-2H-pyran-4-yl)-3,4-dihydroimidazo[5,1-f][1,2,4]triazin-2-yl)pyrrolidin-1-yl)sulfonyl)benzonitrile]"

# Same assay, conditions: Table 2; 10 concentrations; 4.0 μM cGMP substrate; 1 hour at R.T.; read-out: Band (PDE9A2 IC50)
row,IC50 [nM],Compound
1,< 1000,"CC1CN(CC(F)(F)F)CC1c1nn2c(C3CCOCC3)ncc2c(=O)[nH]1 (single isomer, unassigned; (+)) [(+)-2-((3,4-trans)-4-methyl-1-(2,2,2-trifluoroethyl)pyrrolidin-3-yl)-7-(tetrahydro-2H-pyran-4-yl)imidazo[5,1-f][1,2,4]triazin-4(3H)-one]"
2,1000 to 10000,"CC1CN(C(=O)Cc2cncnc2)CC1c1nn2c(C3CCOCC3)ncc2c(=O)[nH]1 (single isomer, unassigned; (+)) [(+)-2-((3,4-trans)-4-methyl-1-(2-(pyrimidin-5-yl)acetyl)pyrrolidin-3-yl)-7-(tetrahydro-2H-pyran-4-yl)imidazo[5,1-f][1,2,4]triazin-4(3H)-one]"
3,< 1000,"CSc1cnc(CN2CC(C)C(c3nn4c(C5CCOCC5)ncc4c(=O)[nH]3)C2)nc1 (single isomer, unassigned; (+)) [(+)-2-((3,4-trans)-4-methyl-1-((5-(methylthio)pyrimidin-2-yl)methyl)pyrrolidin-3-yl)-7-(tetrahydro-2H-pyran-4-yl)imidazo[5,1-f][1,2,4]triazin-4(3H)-one]"
4,< 1000,"CC1CN(Cc2ncc(C(F)(F)F)cn2)CC1c1nn2c(C3CCOCC3)ncc2c(=O)[nH]1 (single isomer, unassigned; (+)) [(+)-2-((3,4-trans)-4-methyl-1-((5-(trifluoromethyl)pyrimidin-2-yl)methyl)pyrrolidin-3-yl)-7-(tetrahydro-2H-pyran-4-yl)imidazo[5,1-f][1,2,4]triazin-4(3H)-one]"

# Same assay, conditions: read-out: Band (PDE9A2 IC50)
row,Compound,IC50 [nM]
1,"CC1CN(Cc2cn3ccccc3n2)CC1c1nn2c(-c3ccccc3)ncc2c(=O)[nH]1 (single isomer, unassigned; (+)) [(+)-2-((3,4-trans)-1-(imidazo[1,2-a]pyridin-2-ylmethyl)-4-methylpyrrolidin-3-yl)-7-phenylimidazo[5,1-f][1,2,4]triazin-4(3H)-one]",< 1000
2,"CC1CN(Cc2ccccc2)CC1c1nn2c(C3CCCC3)ncc2c(=O)[nH]1 (single isomer, unassigned; (+)) [(+)-2-((3,4-trans)-1-benzyl-4-methylpyrrolidin-3-yl)-7-cyclopentylimidazo[5,1-f][1,2,4]triazin-4(3H)-one]",< 1000
3,"CC1CN(CC2CCN(C)CC2)CC1c1nn2c(C3CCOCC3)ncc2c(=O)[nH]1 (single isomer, unassigned; (+)) [(+)-2-((3,4-trans)-4-methyl-1-((1-methylpiperidin-4-yl)methyl)pyrrolidin-3-yl)-7-(tetrahydro-2H-pyran-4-yl)imidazo[5,1-f][1,2,4]triazin-4(3H)-one]",1000 to 10000

# The remaining lines, values ahead:
row,IC50 [nM],Compound
1,< 1000,"CCC(CC)c1ncc2c(=O)[nH]c(C3CN(Cc4ncccn4)CC3C)nn12 (single isomer, unassigned; (+)) [(+)-2-((3,4-trans)-4-methyl-1-(pyrimidin-2-ylmethyl)pyrrolidin-3-yl)-7-(pentan-3-yl)imidazo[5,1-f][1,2,4]triazin-4(3H)-one]"
2,< 1000,"CC1CN(Cc2ncccn2)CC1c1nn2c(-c3ccccc3)ncc2c(=O)[nH]1 (single isomer, unassigned; (+)) [(+)-2-((3,4-trans)-4-methyl-1-(pyrimidin-2-ylmethyl)pyrrolidin-3-yl)-7-phenylimidazo[5,1-f][1,2,4]triazin-4(3H)-one]"
